From US8299092B2, “Derivatives of 2-phenyl-3-hydroxyquinoline-4(1H)-one and methods of their preparation and utilization” (Univerzita Palackeho, priority 2006, dated 2012)
Where two headings read alike, the source gives them in different places.

How the values were obtained:
[1] = tested on: K562 (human myeloid leukaemia); test: MTT cytotoxic test, K562; format: cell-based; details: K 562 cells, mean (x), read-out: Cytotoxic and antiproliferation activity MTT test (IC50, μM) K 562 x
Excerpt: (§1) In order to evaluate antitumour activity of the new prepared substances in vitro, we used the MTT cytotoxic test on cell lines derived from normal tissues and tumours. In particular, they included the NIH 3T3 (mouse fibroblasts), K562 (human myeloid leukaemia), K562-tax (human myeloid leukaemia resistant to taxol and the overexpressing protein of the PgP multiple drug resistance), CEM (T-lymphoblastic leukaemia), CEM-DNR-bulk (T-lymphoblastic leukaemia resistant to doxorubicine, lacking the expression of target gene for inhibitors of topoisomerase II alpha) and the line A549 (human lung adenocarcinoma).

[2] = tested on: K562-tax (human myeloid leukaemia resistant to taxol); test: MTT cytotoxic test, K562-tax; format: cell-based; details: K562-TAX cells, mean (x), read-out: Cytotoxic and antiproliferation activity MTT test (IC50, μM) K562-TAX x
Excerpt: as §1

[3] = tested on: A549 (human lung adenocarcinoma); test: MTT cytotoxic test, A549; format: cell-based; details: A 549 cells, mean (x), read-out: Cytotoxic and antiproliferation activity MTT test (IC50, μM) A 549 x
Excerpt: as §1

[4] = tested on: CEM (T-lymphoblastic leukaemia); test: MTT cytotoxic test, CEM; format: cell-based; details: CEM cells, mean (x), read-out: Cytotoxic and antiproliferation activity MTT test (IC50, μM) CEM x
Excerpt: as §1

[5] = tested on: CEM-DNR-bulk (T-lymphoblastic leukaemia resistant to doxorubicine); test: MTT cytotoxic test, CEM-DNR-bulk; format: cell-based; details: CEM-DNR-BULK cells, mean (x); read-out: Cytotoxic and antiproliferation activity MTT test (IC50, μM) CEM-DNR-BULK x
Excerpt: as §1

[6] = tested on: concavaline A-stimulated human lymphocytes; test: MTT test, inhibition of lymphocyte activation with ConA; format: cell-based; details: 5 μg/ml, mean (x)
Excerpt: The proliferation response of isolated lymphocytes to polyclonal mitogens belongs to the most important parameters of specific cell immunity. Most of the human lymphocytes occur in quiet state. Antigens or polyclonal mitogens, however, are capable of activating lymphatic cells, which is accompanied by dramatic changes of their cell metabolism (enhanced mitochondrial activity, protein and nucleic acid synthesis, formation of blastic cells and proliferations). Substances having the capability to suppress such processes show immunosuppressive activity in clinical conditions and, therefore, these tests can be used for screening tests of immunosuppressive activity in vitro. On this account, we use the above-mentioned MTT test, which evaluates both the survival and the proliferation activity of quiet vs. polyclonal-mitogen (concavaline A, 5 μg/ml)-stimulated human lymphocytes to screen the immunosuppressive activity of new substances (Jegorov et al., J. Mass. Spetrom., 2006).

| SMILES | IC50 [1] [µM] | IC50 [2] [µM] | IC50 [3] [µM] | IC50 [4] [µM] | IC50 [5] [µM] | IC50 [6] [µM] | further results |
| --- | --- | --- | --- | --- | --- | --- | --- |
| O=c1c(O)c(-c2ccc(N3CCN(CCO)CC3)c([N+](=O)[O-])c2)[nH]c2ccccc12 | – | – | – | – | – | – | melting point: 218 to 221 °C |
| C/C=C/CCSc1ccc(-c2[nH]c3ccccc3c(=O)c2O)cc1[N+](=O)[O-] | 9.3 | 5.2 | 4.3 | 2.1 | 3.2 | – | – |
| O=c1c(O)c(-c2ccc3c(c2)ncn3CC(F)(F)F)[nH]c2ccccc12 | – | – | – | – | – | 4.2 | – |
| O=c1c(O)c(-c2ccc(Cl)c([N+](=O)[O-])c2)[nH]c2ccccc12 [Cl, 2-(4-Chlorine-3-nitrophenyl)-3-hydroxyquinoline-4(1H)-one] | 2.3 | 3.2 | 4.2 | 2.6 | 3.5 | – | – |
| O=c1c(O)c(-c2ccc(N3CCN(CCOCCO)CC3)c([N+](=O)[O-])c2)[nH]c2ccccc12 [Example 5, 3-Hydroxy-2-(4-{4-[2-(2-hydroxyethoxy)ethyl]piperazine-1-yl}-3-nitrophenyl)quinoline-4(1H)-one] | – | – | – | – | – | – | melting point: 203 to 204 °C |
| CCNc1ccc(-c2[nH]c3ccccc3c(=O)c2O)cc1[N+](=O)[O-] [Example 6, 2-[4-(Ethylamino)-3-nitrophenyl]-3-hydroxyquinoline-4(1H)-one] | – | – | – | – | – | – | melting point: 282 to 285 °C |
| O=c1c(O)c(-c2ccc(Sc3ccccc3)c([N+](=O)[O-])c2)[nH]c2ccccc12 [Example 7, 3-Hydroxy-2-[3-nitro-4-(phenylthio)phenyl]quinoline-4(1H)-one] | – | – | – | – | – | – | melting point: 322 to 324 °C |
| O=c1c(O)c(-c2ccc(-n3ccnc3)c([N+](=O)[O-])c2)[nH]c2ccccc12 [Example 8, 3-Hydroxy-2-[4-(1H-imidazole-1-yl)-3-nitrophenyl]quinoline-4(1H)-one] | – | – | – | – | – | – | melting point: 278 to 280 °C |
| O=c1c(O)c(-c2ccc(F)c([N+](=O)[O-])c2)[nH]c2ccccc12 [F] | – | – | – | – | – | 3.8 | – |
| CCN(CC)CCn1cnc2cc(-c3[nH]c4ccccc4c(=O)c3O)ccc21 [—(CH2)2N(C2H5)2] | 2.1 | 6.5 | 3.5 | 5.2 | 71.2 | – | – |
| O=c1c(O)c(-c2ccc3c(c2)ncn3CCSCCO)[nH]c2ccccc12 [—(CH2)2S(CH2)2OH] | 3.1 | 4.5 | 3.6 | 0.8 | 2.2 | – | – |
| CCCCCCn1cnc2cc(-c3[nH]c4ccccc4c(=O)c3O)ccc21 [—(CH2)5CH3] | 8.5 | 35 | 44.3 | 2.8 | 54 | – | – |
| O=CNCCn1cnc2cc(-c3[nH]c4ccccc4c(=O)c3O)ccc21 [—CH2CH2NHCHO] | – | – | – | – | – | 1.1 | – |
| CCCN(CCC)c1ccc(-c2[nH]c3ccccc3c(=O)c2O)cc1[N+](=O)[O-] [—N(CH2CH2CH3)2] | 0.6 | 1.2 | 1.1 | 0.7 | 2.2 | 0.9 | – |
| O=c1c(O)c(-c2ccc(N(CCO)CCO)c([N+](=O)[O-])c2)[nH]c2ccccc12 [—N(CH2CH2OH)2] | 187 | 198 | 224 | 0.3 | 143 | 0.9 | – |
| CCN(C)c1ccc(-c2[nH]c3ccccc3c(=O)c2O)cc1[N+](=O)[O-] [—N(CH3)(CH2CH3)] | 0.7 | 163 | 66.5 | 1.7 | 129 | 5.7 | – |
| O=c1c(O)c(-c2ccc(NCCO)c([N+](=O)[O-])c2)[nH]c2ccccc12 [—NH(CH2)2OH] | 7.3 | 44.9 | 46.8 | 2.7 | 98.8 | 3.8 | – |
| O=c1c(O)c(-c2ccc(NCCCO)c([N+](=O)[O-])c2)[nH]c2ccccc12 [—NH(CH2)3OH, 3-Hydroxy-2-{4-[(3-hydroxypropyl)amino]-3-nitrophenyl}quinoline-4(1H)-one] | – | – | – | – | 46.3 | – | melting point: 233 to 236 °C; IC50 ([1]; Homo sapiens, K562): 6.2 µM; IC50 ([2]; Homo sapiens): 12.9 µM; IC50 ([3]; Homo sapiens, A549): 12.4 µM; IC50 ([6]; Lymphocyte): 0.8 µM; IC50 ([4]; Homo sapiens, CCRF-CEM): 1.4 µM |
| O=c1c(O)c(-c2ccc(NCCCCO)c([N+](=O)[O-])c2)[nH]c2ccccc12 [—NH(CH2)4OH] | 1.8 | 8.6 | 5.7 | 0.7 | 15.1 | 1.1 | – |
| O=c1c(O)c(-c2ccc(NCCCCCO)c([N+](=O)[O-])c2)[nH]c2ccccc12 [—NH(CH2)5OH] | 2.8 | 5.7 | 5.3 | 1 | 10.8 | 0.6 | – |
| CC(C)Nc1ccc(-c2[nH]c3ccccc3c(=O)c2O)cc1[N+](=O)[O-] [—NHCH(CH3)2] | 2.1 | 3 | 2.8 | 1.6 | 6.8 | 4.8 | – |
